The text below walks through data of US11576884B2, “Amino acid compositions and uses thereof” (University of Florida Research Foundation, Incorporated, priority 2016, dated 2023).

The assay deals with Lgr5. The assay can be described thus: Western blot for Lgr5 protein. Type of assay: in vivo, NIH Swiss mice. Particulars: individual amino acid by gastric gavage (300 ul OD) for 6 days; 0 Gy and 5 Gy irradiated mice. On the procedure: For FIGS. 9-13, the data is from Male NIH Swiss mice (8 weeks) treated with individual amino acids (FIG. 9 (valine); FIG. 10 (tryptophan); FIG. 11 (serine); FIG. 12 (tyrosine); FIG. 13 (threonine)), as by gastric savage (300 ul OD) for a period of 6 days. Animals were sacrificed on day 6 by CO2 euthanasia and tissues collected for resolving the protein by western blot analysis. Lgr5 (100 KD) was used as the marker for crypt stem cell proliferation. These experiments are repeated at least 4 times (data shown) from 4 different mice.
Control groups were given normal saline. […] Mice fasted for 8 hours prior to gavage.
Signals were detected with Odyssey CLX from LI-COR.
(Immunoblotting shows a protein as a band on a membrane.)

As for `CC(C)[C@H](N)C(=O)O` [valine], the Lgr5 protein levels entry was “increases”.
